# Results as given in patent US20210177808A1, “INJECTABLE ISOXAZOLINE PHARMACEUTICAL COMPOSITIONS AND THEIR USE AGAINST PARASITE INFESTATION” (Intervet Inc., priority 2017, published 2021).
# Tested on: Ctenocephalides felis fleas
# Experiment: Flea efficacy on dogs approximately 6 months after treatment (Example 4B)
# Assay type: in vivo
# Description: The results from additional dose characterization studies are summarized. These studies evaluated three doses (10, 15 and 20 mg/kg) in adult dogs. The injectable suspension formulations of fluralaner were prepared is indicated in Example 1J above. One study tested the effectiveness against Rhipicephalus sanguineus ticks (see Table 7). A second study evaluated efficacy against fleas at approximately 6 months after treatment was tested in dogs (see Table 8).
structure (smiles),measurement,setting,value
"Cc1cc(C2=NOC(c3cc(Cl)cc(Cl)c3)(C(F)(F)F)C2)ccc1C(=O)NCC(=O)NCC(F)(F)F (centres unmarked) [fluralaner, 4-[5-(3,5-Dichlorophenyl)-5-trifluoromethyl-4,5-dihydroisoxazol-3-yl]-2-methyl-N-[(2,2,2-trifluoro-ethylcarbamoyl)-methyl]-benzamide]",Effectiveness in reducing live fleas on dogs,"all three doses (10, 15, 20 mg/kg), 6 months following treatment",100%
same,Predicted duration of efficacy against fleas,predicted because fleas are more sensitive to fluralaner than ticks,12 months
